Measurements as given in patent publication US8822510B2, “Substituted 3-phenyl-1,2,4-Oxadiazole compounds” (Bristol-Myers Squibb Company, priority 2010, dated 2014).

Assays:
[1] = system: circulating lymphocytes; experiment: Blood Lymphocyte Reduction Assay (BLR) in Rodents; format: in vivo; conditions: Lewis rats, oral, vs vehicle group
Experimental: Lewis rats were dosed orally with test article (as a solution or suspension in the vehicle) or vehicle alone (polyethylene glycol 300, “PEG300”). Blood was drawn at 4 hr and 24 h by retro-orbital bleeding. Blood lymphocyte counts were determined on an ADVIA 120 Hematology Analyzer (Siemens Healthcare Diagnostics). The results were measured as a reduction in the percentage of circulating lymphocytes as compared to the vehicle treated group at the 4 hr and 24 hr measurement. The results represent the average results of all animals within each treatment group (n=3-4).
The following examples were tested in the Blood Lymphocyte Reduction assay (BLR) described hereinabove and the results are shown in Table C for rats.

[2] = target: T1, S1P1 (Homo sapiens (Human), UniProt P21453); experiment: S1P1 Binding Assay; conditions: 33P-S1P ligand, membranes from CHO cells expressing human S1P1
Experimental: Membranes were prepared from CHO cells expressing human S1P1. Cells pellets (1×10^8 cells/pellet) were suspended in buffer containing 20 mM HEPES, pH 7.5, 50 mM NaCl, 2 mM EDTA and Protease Inhibitor cocktail (Roche), and disrupted on ice using the Polytron homogenizer. The homogenate was centrifuged at 20,000 rpm (48,000 g) and the supernatant was discarded. The membrane pellets were resuspended in buffer containing 50 mM HEPES, pH 7.5, 100 mM NaCl, 1 mM MgCl2, 2 mM EDTA and stored in aliquots at […] after protein concentration determination.
Membranes (2 μg/well) and 0.03 nM final concentration of 33P-S1P ligand (1 mCi/ml, American Radiolabeled Chemicals) diluted in assay buffer (50 mM HEPES, pH7.4, 5 mM MgCl2, 1 mM CaCl2, 0.5% fatty acid free BSA, 1 mM NaF) were added to the compound plates (384 Falcon v-bottom plate (0.5 μl/well in a 11 point, 3-fold dilution). Binding was performed for 45 minutes at room temperature, terminated by collecting the membranes onto 384-well Millipore FB filter plates, and radioactivity was measured by TOPCOUNT®. The competition data of the test compounds over a range of concentrations was plotted as percentage inhibition of radioligand specific binding. The IC50 is defined as the concentration of competing ligand needed to reduce specific binding by 50%.
Table A below lists S1P1 Binding IC50 values from the following examples of this invention measured in the S1P1 binding assay described hereinabove. The results in Table A were rounded to two digits.

[3] = target: T1, S1P1; experiment: Receptor [35S] GTPγS Binding Assay, S1P1; format: biochemical; conditions: membranes from S1P1/CHO cells
Experimental: Membranes prepared from S1P1/CHO cells or EDG3-Ga15-b1a HEK293T cells were added to the compound plate (40 μl/well, final protein 3 μg/well) with MULTIDROP®. [^35S] GTP (1250 Ci/mmol, Perkin Elmer) was diluted in assay buffer: 20 mM HEPES, pH7.5, 10 mM MgCl2, 150 mM NaCl, 1 mM EGTA, 1 mM DTT, 10 μM GDP, 0.1% fatty acid free BSA, and 10 μg/ml Saponin to 0.4 nM. 40 μl of the [^35S] GTP solution was added to the compound plate with a final concentration of 0.2 nM. The reaction was kept at room temperature for 45 min. At the end of incubation, all the mixtures in the compound plate were transferred to Millipore 384-well FB filter plates via the VELOCITY 11® Vprep liquid handler. The filter plate was washed with water 4 times by using the manifold Embla plate washer and dried at 60° C. for 45 min. MicroScint 20 scintillation fluid (30 μl) was added to each well for counting on the Packard TOPCOUNT®. […] The results in Table B were rounded to two digits. […]

[4] = target: S1P3 (Homo sapiens (Human), UniProt Q99500); experiment: Receptor [35S] GTPγS Binding Assay, S1P3; format: biochemical; conditions: membranes from EDG3-Ga15-b1a HEK293T cells
Experimental: Compounds were loaded in a 384 Falcon v-bottom plate (0.5 μl/well in a 11 point, 3-fold dilution). Membranes prepared from S1P1/CHO cells or EDG3-Ga15-b1a HEK293T cells were added to the compound plate (40 μl/well, final protein 3 μg/well) with MULTIDROP®. [^35S] GTP (1250 Ci/mmol, Perkin Elmer) was diluted in assay buffer: 20 mM HEPES, pH7.5, 10 mM MgCl2, 150 mM NaCl, 1 mM EGTA, 1 mM DTT, 10 μM GDP, 0.1% fatty acid free BSA, and 10 μg/ml Saponin to 0.4 nM. 40 μl of the [^35S] GTP solution was added to the compound plate with a final concentration of 0.2 nM. The reaction was kept at room temperature for 45 min. At the end of incubation, all the mixtures in the compound plate were transferred to Millipore 384-well FB filter plates via the VELOCITY 11® Vprep liquid handler. The filter plate was washed with water 4 times by using the manifold Embla plate washer and dried at 60° C. for 45 min. MicroScint 20 scintillation fluid (30 μl) was added to each well for counting on the Packard TOPCOUNT®. EC50 is defined as the agonist concentration that corresponds to 50% of the Ymax (maximal response) obtained for each individual compound tested. The results in Table B were rounded to two digits.
A smaller value for GTPγS S1P1 EC50 value indicated greater activity for the compound in the GTPγS S1P1 binding assay. A larger value for the GTPγS S1P3 EC50 value indicated less activity in the GTPγS S1P3 binding assay.

T1 sequence (P21453 whole entry): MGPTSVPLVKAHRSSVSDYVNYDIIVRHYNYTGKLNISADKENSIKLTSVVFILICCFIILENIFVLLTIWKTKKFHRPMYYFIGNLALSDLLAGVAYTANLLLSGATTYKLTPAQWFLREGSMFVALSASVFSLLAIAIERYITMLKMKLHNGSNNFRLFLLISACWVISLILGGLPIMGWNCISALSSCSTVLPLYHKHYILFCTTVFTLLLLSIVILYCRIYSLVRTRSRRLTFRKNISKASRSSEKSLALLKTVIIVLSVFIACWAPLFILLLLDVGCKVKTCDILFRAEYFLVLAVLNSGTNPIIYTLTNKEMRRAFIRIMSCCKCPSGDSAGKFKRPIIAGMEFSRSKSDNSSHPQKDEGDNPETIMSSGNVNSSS
S1P3, sequence (Q99500 whole entry): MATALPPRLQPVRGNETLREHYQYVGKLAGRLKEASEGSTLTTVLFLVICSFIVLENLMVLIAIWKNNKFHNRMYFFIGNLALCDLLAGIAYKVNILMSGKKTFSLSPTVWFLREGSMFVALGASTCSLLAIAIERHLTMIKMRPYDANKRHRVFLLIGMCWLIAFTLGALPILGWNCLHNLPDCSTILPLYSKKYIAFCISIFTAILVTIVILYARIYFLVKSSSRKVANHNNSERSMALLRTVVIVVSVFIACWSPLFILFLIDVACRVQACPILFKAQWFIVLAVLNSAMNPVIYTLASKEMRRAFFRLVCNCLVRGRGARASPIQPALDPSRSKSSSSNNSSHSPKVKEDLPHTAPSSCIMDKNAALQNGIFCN

SMILES	% REDUCTION IN LYMPHOCYTES AT 4 HR. ([1]; 1.0 mg/kg) [%]	IC50 [2] [µM]	EC50 [3] [µM]	EC50 [4] [µM]	% REDUCTION IN LYMPHOCYTES AT 4 HR. ([1]; 10.0 mg/kg) [%]	% REDUCTION IN LYMPHOCYTES AT 4 HR. ([1]; 5.0 mg/kg) [%]
O=C(O)C1CN(Cc2ccc(-c3noc(CCC4(c5ccccc5)CCCCC4)n3)cc2)C1 [Example 1, 1-(4-(5-(2-(1-phenylcyclohexyl)ethyl)-1,2,4-oxadiazol-3-yl)benzyl)azetidine-3-carboxylic acid]	75					
Cc1cc(-c2noc(CCC3(c4ccc(F)cc4)CCCCC3)n2)cc(C)c1OC[C@@H](O)CO [Example 4]		0.00012	0.00051	0.0102		
O=C(O)C1CN(Cc2ccc(-c3noc(CCCC4(c5ccc(F)cc5)CCCCC4)n3)cc2)C1 [Example 9, 1-(4-(5-(3-(1-(4-fluorophenyl)cyclohexyl)propyl)-1,2,4-oxadiazol-3-yl)benzyl)azetidine-3-carboxylic acid]		0.00047	0.00023	0.0164		
O=C(O)C1CN(Cc2ccc(-c3noc(CCCC4(c5ccccc5)CCCCC4=O)n3)cc2)C1 (stereo not drawn) [Example 11, 1-(4-(5-(3-(2-oxo-1-phenylcyclohexyl)propyl)-1,2,4-oxadiazol-3-yl)benzyl)azetidine-3-carboxylic acid]		0.00168	0.00217	0.0586		
O=C(O)C1CN(Cc2ccc(-c3noc(COCC4(c5ccc(F)cc5)CCCCC4)n3)cc2)C1 [Example 18, 1-(4-(5-(((1-(4-fluorophenyl)cyclohexyl)methoxy)methyl)-1,2,4-oxadiazol-3-yl)benzyl)azetidine-3-carboxylic acid]		0.00031	0.00078	0.00923		
O=C1NC(=O)C2(CN(Cc3ccc(-c4noc(COCC5(c6ccc(Cl)cc6)CCC5)n4)cc3)C2)N1 [Example 19, 2-(4-(5-(((1-(4-chlorophenyl)cyclobutyl)methoxy)methyl)-1,2,4-oxadiazol-3-yl)benzyl)-2,5,7-triazaspiro[3.4]octane-6,8-dione]		0.477	1.27	5.38		
Cc1cc(-c2noc(/C(F)=C/C3(c4ccc(Cl)cc4)CC3)n2)cc(C)c1OC[C@@H](O)CO [Example 48, (2S)-3-(4-(5-((Z)-2-(1-(4-chlorophenyl)cyclopropyl)-1-fluorovinyl)-1,2,4-oxadiazol-3-yl)-2,6-dimethylphenoxy)-1,2-propanediol]					83	
Cc1cc(-c2noc(/C=C/C3(c4ccc(Cl)cc4)CCCCC3)n2)cc(C)c1OC[C@@H](O)CO [Example 52, (2S)-3-(4-(5-((E)-2-(1-(4-chlorophenyl)cyclohexyl)vinyl)-1,2,4-oxadiazol-3-yl)-2,6-dimethylphenoxy)-1,2-propanediol]		0.00575	0.0081	0.139		
O=C(O)C1CN(Cc2ccc(-c3noc(CCC4(c5ccc(F)cc5)CCCCC4)n3)cc2)C1 [Example 63, 1-(4-(5-(2-(1-(4-fluorophenyl)cyclohexyl)ethyl)-1,2,4-oxadiazol-3-yl)benzyl)-3-azetidinecarboxylic acid]		0.00021	0.00274	0.00494		
O=C(O)C1CN(Cc2ccc(-c3noc(C(F)(F)C(O)C4(c5ccc(Cl)cc5)CC4)n3)cc2)C1 (stereo not drawn) [Example 85, 1-(4-(5-(2-(1-(4-chlorophenyl)cyclopropyl)-1,1-difluoro-2-hydroxyethyl)-1,2,4-oxadiazol-3-yl)benzyl)-3-azetidinecarboxylic acid]		0.135	0.7	> 62.5		
O=C(O)C1CN(Cc2ccc(-c3noc(/C=C/C4(c5ccc(C(F)(F)F)cc5)CCCCC4)n3)cc2)C1 [Example 88, 1-(4-(5-((E)-2-(1-(4-(trifluoromethyl)phenyl)cyclohexyl)vinyl)-1,2,4-oxadiazol-3-yl)benzyl)-3-azetidinecarboxylic acid]		0.0267				
O=C(O)C1CN(Cc2ccc(-c3noc(/C=C/C4(c5cccc(Cl)c5)CCCCC4)n3)cc2)C1 [Example 90, 1-(4-(5-((E)-2-(1-(3-chlorophenyl)cyclohexyl)vinyl)-1,2,4-oxadiazol-3-yl)benzyl)-3-azetidinecarboxylic acid]						85
O=C(O)C1CN(Cc2ccc(-c3noc(/C=C/C4(c5ccc(Cl)cc5)CCCCC4)n3)cc2)C1 [Example 92, 1-(4-(5-((E)-2-(1-(4-chlorophenyl)cyclohexyl)vinyl)-1,2,4-oxadiazol-3-yl)benzyl)-3-azetidinecarboxylic acid]		0.0456	0.0369	0.421		
O=C(O)C1CN(Cc2ccc(-c3noc(CCCC4(c5ccc(Cl)cc5)CCCCC4)n3)cc2)C1 [Example 98, 1-(4-(5-(3-(1-(4-chlorophenyl)cyclohexyl)propyl)-1,2,4-oxadiazol-3-yl)benzyl)-3-azetidinecarboxylic acid]		0.00054	0.0007	0.0274		
O=C(O)C1CN(Cc2ccc(-c3noc(C/C=C/C4(c5ccc(F)cc5)CCCCC4)n3)cc2)C1 [Example 100, 1-(4-(5-((2E)-3-(1-(4-fluorophenyl)cyclohexyl)-2-propen-1-yl)-1,2,4-oxadiazol-3-yl)benzyl)-3-azetidinecarboxylic acid]		0.0034	0.00041	0.0117		
O=C(O)C1CN(Cc2ccc(-c3noc(/C=C/C4(Cc5ccccc5)CCC4)n3)cc2)C1 [Example 103, 1-(4-(5-((E)-2-(1-benzylcyclobutyl)vinyl)-1,2,4-oxadiazol-3-yl)benzyl)-3-azetidinecarboxylic acid]			0.0171	1.49		
O=C(O)C1CN(Cc2ccc(-c3noc(CCC4(c5cccnc5)CCOCC4)n3)cc2)C1 [Example 108, 1-(4-(5-(2-(4-(3-pyridinyl)tetrahydro-2H-pyran-4-yl)ethyl)-1,2,4-oxadiazol-3-yl)benzyl)-3-azetidinecarboxylic acid]		0.861	7.36	> 62.5		
O=C(O)C1CN(Cc2ccc(-c3noc(COCC4(c5ccc(Cl)cc5)CCC4)n3)c(Cl)c2)C1 [Example 141, 1-(3-chloro-4-(5-(((1-(4-chlorophenyl)cyclobutyl)methoxy)methyl)-1,2,4-oxadiazol-3-yl)benzyl)-3-azetidinecarboxylic acid]		0.012	0.0507	5.24		
O=C(O)C1CN(Cc2ccc(-c3noc(COCC4(c5ccc(Cl)cc5)CCC4)n3)c(F)c2)C1 [Example 143, 1-(4-(5-(((1-(4-chlorophenyl)cyclobutyl)methoxy)methyl)-1,2,4-oxadiazol-3-yl)-3-fluorobenzyl)-3-azetidinecarboxylic acid]		0.00972	0.0175	3.73		
